Laboratory results: paper PMC5218480 (PLoS ONE, 2017)

Tested on: MV-4-11 cells
Assay: Gene expression microarray analysis (Affymetrix PrimeView) and GSEA
Format: cell-based, human
Parameters: RFU PODN (11730768_x_at) / Fold change /veh PODN (11730768_x_at) / RFU LINC00158 (11744669_a_at) / Fold change /veh LINC00158 (11744669_a_at) / RFU DUSP10 (11751237_a_at) / Fold change /veh DUSP10 (11751237_a_at) / RFU ID3 (11757404_x_at) / Fold change /veh ID3 (11757404_x_at) / RFU PLEKHG5 (11737974_s_at) / Fold change /veh PLEKHG5 (11737974_s_at) / RFU LRRC4B (11730491_at) / Fold change /veh LRRC4B (11730491_at) / RFU GIMAP4 (11747438_a_at) / Fold change /veh GIMAP4 (11747438_a_at) / RFU KRT8 (11758183_x_at) / Fold change /veh KRT8 (11758183_x_at) / RFU CNN1 (11734310_a_at) / Fold change /veh CNN1 (11734310_a_at) / RFU VPS37D (11726825_at) / Fold change /veh VPS37D (11726825_at) / RFU C10orf10 (11716522_x_at) / Fold change /veh C10orf10 (11716522_x_at) / RFU KIR2DL2 /// KIR2DL4 /// KIR2DL5A /// KIR2DL5B /// KIR2DS1 /// KIR2DS2 /// KIR2DS3 /// KIR2DS4 /// KIR3DL3 /// KIR3DL3 /// KIR3DS1 (11738374_at) / Fold change /veh KIR2DL2 /// KIR2DL4 /// KIR2DL5A /// KIR2DL5B /// KIR2DS1 /// KIR2DS2 /// KIR2DS3 /// KIR2DS4 /// KIR3DL3 /// KIR3DL3 /// KIR3DS1 (11738374_at) / RFU C1QL1 (11718748_at) / Fold change /veh C1QL1 (11718748_at) / RFU TMPRSS4 (11747572_a_at) / Fold change /veh TMPRSS4 (11747572_a_at) / RFU HAMP (11756126_x_at) / Fold change /veh HAMP (11756126_x_at) / RFU RNFT2 (11725882_a_at) / Fold change /veh RNFT2 (11725882_a_at) / RFU NR4A2 (11747474_a_at) / Fold change /veh NR4A2 (11747474_a_at) / RFU ABCC12 (11746883_a_at) / Fold change /veh ABCC12 (11746883_a_at) / RFU TMEM136 (11760407_x_at) / Fold change /veh TMEM136 (11760407_x_at) / RFU CLDN22 /// WWC2 (11732394_at) / Fold change /veh CLDN22 /// WWC2 (11732394_at) / RFU HLA-DPB1 (11760878_x_at) / Fold change /veh HLA-DPB1 (11760878_x_at) / RFU SPINT1 (11716480_a_at) / Fold change /veh SPINT1 (11716480_a_at) / RFU GAP43 (11754022_s_at) / Fold change /veh GAP43 (11754022_s_at) / RFU A4GNT (11735810_at) / Fold change /veh A4GNT (11735810_at) / RFU PRB3 (11715151_x_at) / Fold change /veh PRB3 (11715151_x_at) / RFU TUBB4B (11761932_at) / Fold change /veh TUBB4B (11761932_at) / RFU CAPN14 (11732068_a_at) / Fold change /veh CAPN14 (11732068_a_at) / RFU TMCC2 (11721928_a_at) / Fold change /veh TMCC2 (11721928_a_at) / RFU IRGQ (11745062_a_at) / Fold change /veh IRGQ (11745062_a_at) / RFU FAM174B (11720279_a_at) / Fold change /veh FAM174B (11720279_a_at) / RFU TMPRSS4 (11748680_a_at) / Fold change /veh TMPRSS4 (11748680_a_at) / RFU FAM212B (11763350_a_at) / Fold change /veh FAM212B (11763350_a_at) / RFU PLEKHG5 (11743358_a_at) / Fold change /veh PLEKHG5 (11743358_a_at) / RFU ZSCAN30 (11745921_a_at) / Fold change /veh ZSCAN30 (11745921_a_at) / RFU CMKLR1 (11741424_a_at) / Fold change /veh CMKLR1 (11741424_a_at) / RFU LOC101060620 /// MAPK8IP1 (11723275_at) / Fold change /veh LOC101060620 /// MAPK8IP1 (11723275_at) / RFU SPTSSB (11747773_x_at) / Fold change /veh SPTSSB (11747773_x_at) / RFU PRSS12 (11739890_at) / Fold change /veh PRSS12 (11739890_at) / RFU BIN1 (11741810_x_at) / Fold change /veh BIN1 (11741810_x_at) / RFU WNT11 (11732464_a_at) / Fold change /veh WNT11 (11732464_a_at) / RFU C10orf10 (11716521_a_at) / Fold change /veh C10orf10 (11716521_a_at) / RFU C5orf56 (11738089_at) / Fold change /veh C5orf56 (11738089_at) / RFU CYB561 (11721691_x_at) / Fold change /veh CYB561 (11721691_x_at) / RFU ANKRD19P (11752326_a_at) / Fold change /veh ANKRD19P (11752326_a_at) / RFU OR2T12 /// OR2T33 /// OR2T8 (11738714_s_at) / Fold change /veh OR2T12 /// OR2T33 /// OR2T8 (11738714_s_at) / RFU VCAN (11748164_a_at) / Fold change /veh VCAN (11748164_a_at) / RFU JSRP1 (11732532_at) / Fold change /veh JSRP1 (11732532_at) / RFU KRTAP10-11 (11738290_x_at) / Fold change /veh KRTAP10-11 (11738290_x_at) / RFU MYO3A (11730013_a_at) / Fold change /veh MYO3A (11730013_a_at) / RFU EBF3 (11725865_a_at) / Fold change /veh EBF3 (11725865_a_at) / RFU CAMK2N1 (11719241_x_at) / Fold change /veh CAMK2N1 (11719241_x_at) / RFU C5orf56 (11738088_a_at) / Fold change /veh C5orf56 (11738088_a_at) / RFU OLFML3 (11715873_a_at) / Fold change /veh OLFML3 (11715873_a_at) / RFU LOC100653217 /// NTM (11731650_a_at) / Fold change /veh LOC100653217 /// NTM (11731650_a_at) / RFU MAPK11 (11762145_a_at) / Fold change /veh MAPK11 (11762145_a_at) / RFU FIZ1 (11724087_x_at) / Fold change /veh FIZ1 (11724087_x_at) / RFU OASL (11726364_x_at) / Fold change /veh OASL (11726364_x_at) / RFU SOX15 (11748057_x_at) / Fold change /veh SOX15 (11748057_x_at) / RFU CD79A (11719716_a_at) / Fold change /veh CD79A (11719716_a_at) / RFU HIST1H1D (11736915_at) / Fold change /veh HIST1H1D (11736915_at) / RFU CASKIN2 (11723855_a_at) / Fold change /veh CASKIN2 (11723855_a_at) / RFU LOC730098 (11760151_x_at) / Fold change /veh LOC730098 (11760151_x_at) / RFU OR4N2 (11742367_at) / Fold change /veh OR4N2 (11742367_at) / RFU PRRT2 (11749266_a_at) / Fold change /veh PRRT2 (11749266_a_at) / RFU SNX32 (11753110_a_at) / Fold change /veh SNX32 (11753110_a_at) / RFU CDHR5 (11726645_a_at) / Fold change /veh CDHR5 (11726645_a_at) / RFU RCAN1 (11760418_a_at) / Fold change /veh RCAN1 (11760418_a_at) / RFU FAM167A (11723789_a_at) / Fold change /veh FAM167A (11723789_a_at) / RFU FAM26E (11764081_at) / Fold change /veh FAM26E (11764081_at) / RFU ISYNA1 (11749810_s_at) / Fold change /veh ISYNA1 (11749810_s_at) / RFU ACY1 (11761880_at) / Fold change /veh ACY1 (11761880_at) / RFU 11764098_at / Fold change /veh 11764098_at / RFU SAMD14 (11745864_x_at) / Fold change /veh SAMD14 (11745864_x_at) / RFU NPB (11741838_a_at) / Fold change /veh NPB (11741838_a_at) / RFU TMPRSS6 (11731388_a_at) / Fold change /veh TMPRSS6 (11731388_a_at) / RFU KRTAP10-2 (11738614_at) / Fold change /veh KRTAP10-2 (11738614_at) / RFU ARHGAP8 /// PRR5-ARHGAP8 (11727945_x_at) / Fold change /veh ARHGAP8 /// PRR5-ARHGAP8 (11727945_x_at) / RFU KRTAP5-7 /// NADSYN1 (11734609_at) / Fold change /veh KRTAP5-7 /// NADSYN1 (11734609_at) / RFU RASL12 (11751679_a_at) / Fold change /veh RASL12 (11751679_a_at) / RFU CDKN2B (11736163_a_at) / Fold change /veh CDKN2B (11736163_a_at) / RFU PRF1 (11729649_at) / Fold change /veh PRF1 (11729649_at) / RFU, ZNF638 /// ZNF638-IT1 / Fold change vs veh, ZNF638 /// ZNF638-IT1 / RFU, PANK3 / Fold change vs veh, PANK3 / RFU, SH3YL1 / Fold change vs veh, SH3YL1 / RFU, ZEB2 / Fold change vs veh, ZEB2 / RFU, NRIP1 / Fold change vs veh, NRIP1 / RFU, PTTG1IP / Fold change vs veh, PTTG1IP / RFU, CAPN2 / Fold change vs veh, CAPN2 / RFU, MED14 / Fold change vs veh, MED14 / RFU, SNORA58 / Fold change vs veh, SNORA58 / RFU, C1orf63 / Fold change vs veh, C1orf63 / RFU, LRRFIP1 / Fold change vs veh, LRRFIP1 / RFU, NDUFAF7 / Fold change vs veh, NDUFAF7 / RFU, SLC12A2 / Fold change vs veh, SLC12A2 / RFU, IBTK / Fold change vs veh, IBTK / RFU, ESF1 / Fold change vs veh, ESF1 / Fold change vs veh, TMEM50B / RFU, TAOK1 / Fold change vs veh, TAOK1 / RFU, ACBD3 / Fold change vs veh, ACBD3 / RFU, TMA16 / Fold change vs veh, TMA16 / RFU, RWDD3 / Fold change vs veh, RWDD3 / RFU, BCAT1 / Fold change vs veh, BCAT1 / RFU, EDEM3 / Fold change vs veh, EDEM3 / RFU, TMEM33 / Fold change vs veh, TMEM33 / RFU, WDR75 / Fold change vs veh, WDR75 / RFU, AHCTF1 / Fold change vs veh, AHCTF1 / RFU, TFRC / Fold change vs veh, TFRC / RFU, ZDHHC17 / Fold change vs veh, ZDHHC17 / RFU, NOM1 / Fold change vs veh, NOM1 / RFU, ARL8B / Fold change vs veh, ARL8B / RFU, ZBTB11 / Fold change vs veh, ZBTB11 / RFU, TAMM41 / Fold change vs veh, TAMM41 / RFU, KIAA1704 /// LOC100996395 / Fold change vs veh, KIAA1704 /// LOC100996395 / RFU, ING1 / Fold change vs veh, ING1 / RFU, TRMT61B / Fold change vs veh, TRMT61B / RFU, FUBP3 / Fold change vs veh, FUBP3 / RFU, TP53 / Fold change vs veh, TP53 / RFU, TNKS2 / Fold change vs veh, TNKS2 / RFU, ZFP14 / Fold change vs veh, ZFP14 / RFU, ACTR2 / Fold change vs veh, ACTR2 / RFU, PPP3R1 / Fold change vs veh, PPP3R1 / RFU, PIK3R1 / Fold change vs veh, PIK3R1 / RFU, HNRNPA1 / Fold change vs veh, HNRNPA1 / RFU, RNF170 / Fold change vs veh, RNF170 / RFU, ZNF28 / Fold change vs veh, ZNF28 / RFU, RNGTT / Fold change vs veh, RNGTT / RFU, OGT / Fold change vs veh, OGT / RFU, BRD1 / Fold change vs veh, BRD1 / RFU, MARS / Fold change vs veh, MARS / RFU, ZNF655 / Fold change vs veh, ZNF655 / RFU, FAHD1 / Fold change vs veh, FAHD1 / RFU, BDP1 / Fold change vs veh, BDP1 / RFU, LRRCC1 / Fold change vs veh, LRRCC1 / RFU, ARID1A / Fold change vs veh, ARID1A / RFU, ZNF146 / Fold change vs veh, ZNF146 / RFU, ZNF330 / Fold change vs veh, ZNF330 / RFU, GPN3 / Fold change vs veh, GPN3 / RFU, C9orf123 / Fold change vs veh, C9orf123 / RFU, N4BP2L2 / Fold change vs veh, N4BP2L2 / RFU, ARFIP1 / Fold change vs veh, ARFIP1 / RFU, FAM179B / Fold change vs veh, FAM179B / RFU, BCL10 / Fold change vs veh, BCL10 / RFU, UHRF1BP1L / Fold change vs veh, UHRF1BP1L / RFU, BET1 / Fold change vs veh, BET1 / RFU, CNOT2 / Fold change vs veh, CNOT2 / RFU, ZNF268 / Fold change vs veh, ZNF268 / Fold change vs veh, ZNF507 / RFU, DGCR2 / Fold change vs veh, DGCR2 / RFU, WDSUB1 / Fold change vs veh, WDSUB1 / Fold change vs veh, HSP90B1 /// MIR3652 / RFU, ADSS / Fold change vs veh, ADSS / RFU, GK / Fold change vs veh, GK / RFU, ZNF148 / Fold change vs veh, ZNF148 / RFU, TAF9 / Fold change vs veh, TAF9 / RFU, SLC1A5 / Fold change vs veh, SLC1A5 / RFU, SLMO2 / Fold change vs veh, SLMO2 / RFU, ABCC4 / Fold change vs veh, ABCC4 / RFU, LOC101060439 /// RAP1B / Fold change vs veh, LOC101060439 /// RAP1B / RFU, RFX7 / Fold change vs veh, RFX7 / RFU, GTPBP10 / Fold change vs veh, GTPBP10 / RFU, CNEP1R1 / Fold change vs veh, CNEP1R1 / RFU, BIVM-ERCC5 /// ERCC5 / Fold change vs veh, BIVM-ERCC5 /// ERCC5 / RFU, ILF3 / Fold change vs veh, ILF3 / RFU 11762660_at / Fold change /veh 11762660_at / RFU VCAN (11757783_s_at) / Fold change /veh VCAN (11757783_s_at) / RFU DDX43 (11728927_at) / Fold change /veh DDX43 (11728927_at) / RFU KRT8 (11758188_x_at) / Fold change /veh KRT8 (11758188_x_at) / RFU NKD1 (11759106_at) / Fold change /veh NKD1 (11759106_at) / RFU SRD5A1 (11742802_a_at) / Fold change /veh SRD5A1 (11742802_a_at) / RFU TPSAB1 /// TPSB2 (11721975_s_at) / Fold change /veh TPSAB1 /// TPSB2 (11721975_s_at) / RFU GSTM3 (11746129_a_at) / Fold change /veh GSTM3 (11746129_a_at) / RFU IL23R (11737362_x_at) / Fold change /veh IL23R (11737362_x_at) / RFU TMEM51 (11727254_a_at) / Fold change /veh TMEM51 (11727254_a_at) / RFU PIWIL2 (11732686_x_at) / Fold change /veh PIWIL2 (11732686_x_at) / RFU ORM1 (11744905_x_at) / Fold change /veh ORM1 (11744905_x_at) / RFU CCDC152 (11743942_at) / Fold change /veh CCDC152 (11743942_at) / RFU ECM1 (11717891_a_at) / Fold change /veh ECM1 (11717891_a_at) / RFU IL23R (11748794_a_at) / Fold change /veh IL23R (11748794_a_at) / RFU TNFAIP8L3 (11732012_x_at) / Fold change /veh TNFAIP8L3 (11732012_x_at) / RFU MBOAT4 (11741988_at) / Fold change /veh MBOAT4 (11741988_at) / RFU 11764193_at / Fold change /veh 11764193_at / RFU TMEM53 (11763286_at) / Fold change /veh TMEM53 (11763286_at) / RFU MAGEB2 (11727129_at) / Fold change /veh MAGEB2 (11727129_at) / RFU TMEM200A (11744735_a_at) / Fold change /veh TMEM200A (11744735_a_at) / RFU CCDC152 (11751479_a_at) / Fold change /veh CCDC152 (11751479_a_at) / RFU FAM211A (11726209_a_at) / Fold change /veh FAM211A (11726209_a_at) / RFU RGS16 (11746705_a_at) / Fold change /veh RGS16 (11746705_a_at) / RFU VCAN (11755009_s_at) / Fold change /veh VCAN (11755009_s_at) / RFU RHOB (11743442_s_at) / Fold change /veh RHOB (11743442_s_at) / RFU RGS16 (11720943_a_at) / Fold change /veh RGS16 (11720943_a_at) / RFU RGS16 (11720944_at) / Fold change /veh RGS16 (11720944_at) / RFU, VPS4B / Fold change vs veh, VPS4B / RFU, CREB1 / Fold change vs veh, CREB1 / RFU, DNAJC13 / Fold change vs veh, DNAJC13 / RFU, GNAQ / Fold change vs veh, GNAQ / RFU, CDK5R1 / Fold change vs veh, CDK5R1 / RFU, ZRANB3 / Fold change vs veh, ZRANB3 / RFU, CUL4A / Fold change vs veh, CUL4A / RFU, CCNY / Fold change vs veh, CCNY / RFU, UFL1 / Fold change vs veh, UFL1 / RFU, COG3 / Fold change vs veh, COG3 / RFU, DIAPH2 / Fold change vs veh, DIAPH2 / RFU, SKA2 / Fold change vs veh, SKA2 / RFU, AFF3 / Fold change vs veh, AFF3 / RFU, LMF1 / Fold change vs veh, LMF1 / RFU, IPO11 / Fold change vs veh, IPO11 / RFU, DFFB / Fold change vs veh, DFFB / RFU, FOXP1 / Fold change vs veh, FOXP1 / RFU, CARD8 / Fold change vs veh, CARD8 / RFU, STRN3 / Fold change vs veh, STRN3 / RFU, ADK / Fold change vs veh, ADK / RFU, RASSF2 / Fold change vs veh, RASSF2 / RFU, WIPF1 / Fold change vs veh, WIPF1 / RFU, LARP1B / Fold change vs veh, LARP1B / RFU, RASA1 / Fold change vs veh, RASA1 / RFU, RB1 / Fold change vs veh, RB1 / RFU, PPFIA1 / Fold change vs veh, PPFIA1 / RFU, MAT2A / Fold change vs veh, MAT2A / RFU, CCT5 / Fold change vs veh, CCT5 / RFU, WDR92 / Fold change vs veh, WDR92 / RFU, CUX1 / Fold change vs veh, CUX1 / RFU, TTC7A / Fold change vs veh, TTC7A / RFU, TMEM135 / Fold change vs veh, TMEM135 / RFU, DEPTOR / Fold change vs veh, DEPTOR / RFU, CPM / Fold change vs veh, CPM / RFU, DNAJB6 / Fold change vs veh, DNAJB6 / RFU, CACNA2D3 / Fold change vs veh, CACNA2D3 / RFU, DTX4 / Fold change vs veh, DTX4 / RFU, TFCP2 / Fold change vs veh, TFCP2 / RFU, GMCL1 /// GMCL1P1 / Fold change vs veh, GMCL1 /// GMCL1P1 / RFU, AEBP2 / Fold change vs veh, AEBP2 / RFU, SNHG1 /// SNORD22 /// SNORD25 /// SNORD26 /// SNORD27 /// SNORD28 /// SNORD29 /// SNORD31 / Fold change vs veh, SNHG1 /// SNORD22 /// SNORD25 /// SNORD26 /// SNORD27 /// SNORD28 /// SNORD29 /// SNORD31 / Fold change (Aza/veh), C12orf56 (ProbeSet 11735607_a_at) / Fold change (ACY-1035/veh), C12orf56 (ProbeSet 11735607_a_at) / Fold change (Aza/veh), FGFR1OP (ProbeSet 11751329_s_at) / Fold change (ACY-1035/veh), FGFR1OP (ProbeSet 11751329_s_at) / Fold change (Aza/veh), VPS36 (ProbeSet 11739960_a_at) / Fold change (ACY-1035/veh), VPS36 (ProbeSet 11739960_a_at) / RFU SYPL1 (11715823_x_at) / Fold change /veh SYPL1 (11715823_x_at) / RFU IGFBP7 (11715501_s_at) / Fold change /veh IGFBP7 (11715501_s_at) / RFU REEP3 (11722064_at) / Fold change /veh REEP3 (11722064_at) / RFU IGLL1 (11728026_x_at) / Fold change /veh IGLL1 (11728026_x_at): dose or concentration left out as unconfirmed
Conditions: MV-4-11 cells, 48 hours

With `Nc1ccc(-c2cccs2)cc1NC(=O)c1ccc2c(c1)cc(C1CC1)n2CCN1CCOCC1` [ACY-1035] the “RFU ORM1 (11744905_x_at)” value was 9.21 RFU.
